Here are results for two compounds from patent US9120746B2, “Crystalline form of a 3-phenoxymethylpyrrolidine compound” (Theravance Biopharma R&D IP, LLC, priority 2010, dated 2015).

Where a name gives a salt, the structure may show the parent alone. Read-outs that look alike come from different tables or passages of the source.

For data set [1], the target named is T1, hSERT (Homo sapiens, UniProt P31645).
T1 construct: expressed in transfected cells; host or cells: HEK-293 derived cell line, stably transfected
Briefly: hSERT membrane radioligand binding assay (3H-citalopram). The note with it: 1.0 nM 3H-citalopram, HEK-293 hSERT membranes; read-out: SERT pKi (converted). The protocol: (§1) Membrane radioligand binding assays were used to measure inhibition of labeled ligand (^3H-citalopram or ^3H-nisoxetine or ^3H-WIN35428) binding to membranes prepared from cells expressing the respective human recombinant transporter (hSERT or hNET or hDAT) in order to determine the pKi values of test compounds at the transporters.
(§2) Recombinant human embryonic kidney (HEK-293) derived cell lines stably transfected with hSERT or hNET, respectively, were grown in Dulbecco's Modified Eagle's Medium (DMEM) medium supplemented with 10% dialyzed FBS (for hSERT) or FBS (for hNET), 100 μg/ml penicillin, 100 μg/ml streptomycin, 2 mM L-glutamine and 250 μg/ml of the aminoglycoside antibiotic G418, in a 5% CO2 humidified incubator at 37° C. When cultures reached 80% confluence, the cells were washed thoroughly in PBS (without Ca^2+ and Mg^2+) and lifted with 5 mM EDTA in PBS. […] Protein concentration of the membrane suspension was determined using a Bio-Rad Bradford Protein Assay kit. […]
(§3) Stock solutions (10 mM in DMSO) of test compound were prepared and serial dilutions made using Dilution Buffer (50 mM Tris-HCl, 120 mM NaCl, 5 mM KCl, pH 7.4, 0.1% BSA, 400 μM ascorbic acid). Non-specific radioligand binding was determined in the presence of 1 μM duloxetine, 1 μM desipramine or 10 μM GBR12909 (each in Dilution Buffer) for the hSERT, hNET or hDAT assays, respectively. […]

In data set [2] the target is T2, hNET (Homo sapiens, UniProt P23975).
T2 construct: expressed in transfected cells; host or cells: HEK-293 derived cell line, stably transfected
Put plainly: hNET membrane radioligand binding assay (3H-nisoxetine). Particulars: 1.0 nM 3H-nisoxetine, HEK-293 hNET membranes; read-out: NET pKi (converted). The protocol:
as §1, §2, §3

Data set [3] addresses T1, hSERT. Put plainly: hSERT neurotransmitter uptake assay (3H-5-HT). The data set is classed as cell-based. Particulars: 3H-5-HT 20 nM, HEK-293 hSERT cells; read-out: serotonin reuptake inhibition pIC50 (converted). The protocol: (§4) Neurotransmitter uptake assays were used to measure inhibition of ^3H-serotonin (^3H-5-HT), ^3H-norepinephrine (^3H-NE), and ^3H-dopamine (^3H-DA) uptake into cells expressing the respective transporter (hSERT, hNET or hDAT) in order to determine the pIC50 values of test compounds at the transporters.
(§5) HEK-293 derived cell lines stably-transfected with hSERT, hNET, or hDAT, respectively, were grown in DMEM medium supplemented with 10% dialyzed FBS (for hSERT) or FBS (for hNET and hDAT), 100 μg/ml penicillin, 100 μg/ml streptomycin, 2 mM L-glutamine and 250 μg/ml of the aminoglycoside antibiotic G418 (for hSERT and hNET) or 800 ug/ml (for hDAT), in a 5% CO2 humidified incubator at 37° C. When cultures reached 80% confluence, the cells were washed thoroughly in PBS (without Ca^2+ and Mg^2+) and lifted with 5 mM EDTA in PBS. […]
(§6) Neurotransmitter uptake assays were performed in a 96-well assay plate in a total volume of 400 μl assay buffer (Krebs-Ringer bicarbonate buffer containing HEPES (10 mM), CaCl2 (2.2 mM), ascorbic acid (200 μM) and pargyline (200 μM), pH 7.4) with 1.5×10^4 and 2.5×10^4 cells, for SERT, NET, and DAT, respectively. […] Non-specific neurotransmitter uptake was determined in the presence of 2.5 μM duloxetine, 2.5 μM desipramine, or 10 uM GBR-12909 (each in Dilution Buffer) for the hSERT, hNET, or hDAT assays, respectively. […]

The target of data set [4] is T2, hNET. Briefly: hNET neurotransmitter uptake assay (3H-NE). The data set is classed as cell-based. Particulars: 3H-NE 50 nM, HEK-293 hNET cells; read-out: norepinephrine reuptake inhibition pIC50 (converted). The protocol:
as §4, §5, §6

A further data set can be described thus: Aqueous solubility. Particulars: read-out: SOLUBILITY CONCENTRATION
Format: physicochemical. From the text: The crystalline hydrochloride salt of the invention has very good aqueous solubility in a wide pH range: […]

Data set [5] is described as follows: Solution stability (HPLC peak area). The data set is classed as physicochemical. The note with it: for Change in HPLC Peak Area: 10 μm/mL, 3 days at 40° C.
The nature of data set [6]: Dynamic moisture sorption (DMS) assessment. Format: physicochemical. Particulars: exposed to up to 85% relative humidity, 25° C. The protocol:
A dynamic moisture sorption (DMS) assessment (also known as a moisture sorption-desorption profile) was performed for the crystalline hydrochloride salt of the invention using a VTI atmospheric microbalance, SGA-100 system (VTI Corp., Hialeah, Fla. 33016). A sample size of approximately 2.73 mg was used and the humidity was set at the ambient value at the start of the analysis. The DMS analysis consisted of a scan rate of 5% relative humidity/step over the full humidity range of 2% relative humidity to 90% relative humidity. The DMS run was performed isothermally at 25° C.

Data set [7] in a line: Thermal analysis (DSC, TGA). The data set is classed as physicochemical. The protocol:
Differential scanning calorimetry (DSC) was performed using a TA Instruments
Model Q-100 module with a Thermal Analyst controller. Data were collected and analyzed using TA Instruments Thermal Solutions software. A 1.22 mg sample of the crystalline hydrochloride salt of the invention was accurately weighed into a covered aluminum pan. After a 5 minute isothermal equilibration period at 22° C., the sample was heated using a linear heating ramp of 10° C./min from 22° C. to 250° C.

A short description of data set [8]: Deliquescence on exposure to atmospheric moisture. Particulars: exposed to atmospheric moisture. Format: physicochemical.

T2 sequence (P23975 whole entry): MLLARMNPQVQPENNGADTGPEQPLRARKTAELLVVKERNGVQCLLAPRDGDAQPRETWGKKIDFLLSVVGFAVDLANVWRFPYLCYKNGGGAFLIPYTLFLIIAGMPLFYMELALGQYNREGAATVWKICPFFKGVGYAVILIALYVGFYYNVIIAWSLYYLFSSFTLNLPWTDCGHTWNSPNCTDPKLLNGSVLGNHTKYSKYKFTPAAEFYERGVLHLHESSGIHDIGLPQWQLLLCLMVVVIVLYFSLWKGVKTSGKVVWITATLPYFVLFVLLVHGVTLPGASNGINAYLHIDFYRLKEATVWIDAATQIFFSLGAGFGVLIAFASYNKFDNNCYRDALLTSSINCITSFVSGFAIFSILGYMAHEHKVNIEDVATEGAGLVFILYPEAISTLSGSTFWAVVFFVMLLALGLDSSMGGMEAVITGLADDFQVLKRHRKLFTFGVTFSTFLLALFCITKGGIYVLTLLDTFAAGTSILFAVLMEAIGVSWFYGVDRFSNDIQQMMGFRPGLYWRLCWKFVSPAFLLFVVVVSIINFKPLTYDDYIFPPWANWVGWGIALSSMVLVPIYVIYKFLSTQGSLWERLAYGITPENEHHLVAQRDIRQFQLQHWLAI
T1 sequence (P31645 whole entry): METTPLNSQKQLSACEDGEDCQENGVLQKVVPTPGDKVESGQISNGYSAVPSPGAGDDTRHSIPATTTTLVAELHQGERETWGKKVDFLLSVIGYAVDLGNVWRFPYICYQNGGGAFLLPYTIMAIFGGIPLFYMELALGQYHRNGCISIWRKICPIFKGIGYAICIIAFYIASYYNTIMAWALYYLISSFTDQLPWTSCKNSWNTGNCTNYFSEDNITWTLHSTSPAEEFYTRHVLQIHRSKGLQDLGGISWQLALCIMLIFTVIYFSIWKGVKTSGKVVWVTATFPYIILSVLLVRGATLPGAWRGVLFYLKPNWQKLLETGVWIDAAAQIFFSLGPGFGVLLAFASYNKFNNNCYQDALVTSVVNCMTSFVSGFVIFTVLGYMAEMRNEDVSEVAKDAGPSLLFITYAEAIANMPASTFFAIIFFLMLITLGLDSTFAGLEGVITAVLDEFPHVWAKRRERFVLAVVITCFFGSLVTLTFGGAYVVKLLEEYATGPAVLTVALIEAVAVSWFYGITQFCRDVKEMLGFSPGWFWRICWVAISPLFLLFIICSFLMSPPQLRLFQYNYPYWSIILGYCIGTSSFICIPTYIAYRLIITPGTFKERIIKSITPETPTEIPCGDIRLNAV

`CC(C)[C@H](Oc1ccc(Cl)cc1)[C@H]1CCNC1` [Example 1 (TFA salt), (S)-3-[(S)-1-(4-Chlorophenoxy)-2-methylpropyl]pyrrolidine]: the Ki on hSERT [1] and on hNET [2] was at most 10 nM throughout. Besides, the IC50 at hSERT [3] and on hNET [4] was at most 10 nM throughout.

For the compound `CC(C)[C@H](Oc1ccc(Cl)cc1)[C@H]1CCNC1` [Example 1, Crystalline Hydrochloride Salt of (S)-3-[(S)-1-(4-Chlorophenoxy)-2-methylpropyl]pyrrolidine], the solubility in “Aqueous solubility” (aqueous HCl, simulated gastric fluid, HCl pH 2.0) was above 10000 µg/mL; in “Aqueous solubility” (phosphate buffer, aqueous buffer, 50 mM phosphate-buffered pH 7.4), above 10000 µg/mL; in “Aqueous solubility” (un-buffered water), above 10000 µg/mL. For the same compound, the “Change in HPLC Peak Area” value in data set [5] (50 mM citric acid pH 2.2) is listed as 100.5%; in [5] (50 mM phosphate-buffered pH 7.4) it was 100.0%. Moreover, in data set [5] (room temperature, 30 days, concentrations of 1 mg/mL and 10 mg/mL), the “stability at room temperature” value is recorded as “no degradation”. The weight gain result in data set [6] is reported as “less than 1.0%”. For the same compound, the “thermal stability (DSC)” value in data set [7] (heating 10° C./min from 22° C. to 250° C.) was “no significant thermal decomposition below about 200 °C”. Also, in data set [7] (room temperature to 200° C.), the “weight loss (TGA)” value is given as “did not lose any significant amount of weight”. The deliquescence entry in data set [8] is recorded as “not to be deliquescent”.
